From patent US12473294B2, “Selective modulators of mutant LRRK2 proteolysis and associated methods of use” (Arvinas Operations, Inc., priority 2020, dated 2025)

How the values were obtained:
G2019S LRRK2 = target: T1, G2019S LRRK2 (Homo sapiens, UniProt Q5S007, G2019S); assay: LRRK2 degradation HiBit assay, G2019S LRRK2 tagged with a HiBit tag expressed in HEK293 cells; assay type: cell-based; settings: 24 hours compound incubation; for Dmax: HEK293, HEK293 cells; for DC50: HEK293 cells
T1 construct: expressed in transfected cells; host or cells: HEK293 (ATCC CRL-1573)
Method: (§1) The assay measures the degradation of wildtype and G2019S LRRK2 tagged with a HiBit tag on the C-terminus of the protein that was expressed from a mammalian expression vector, driven by the ubiquitin promoter in HEK293 cells. Each compound dose-response was repeated on three separate days, on three separate plates each day.
(§2) Plasmid Preparation. Transfection mixes were assembled as follows and incubated for 30 minutes at room temperature. In a 15 mL tube, 5.25 mL Opti-MEM (no additions) was mixed with 17 μL Firefly Luciferase plasmid at 1 μg/μL and 158 μL WT plasmid DNA at 1 μg/μL (175 μg total DNA) were mixed by flicking. In a new 15 mL tube, 5.25 mL OptiMEM was mixed with 17 μL Firefly Luciferase plasmid at 1 μg/μL and 158 μL G2019S plasmid DNA at 1 μg/μL (175 μg total DNA) were mixed by flicking. X-tremeGene HP was mixed thoroughly using a vortex. Next, 175 μL was added to each tube and flicked to mix. Both tubes were left to incubate for 30 minutes at room temperature.
While the transfection mixes were incubating, HEK293 cells acquired from ATCC (ATCC CRL-1573) were harvested with trypsin. Once cells are detached, the cells were resuspended in 12 mL OptiMEM+5% FBS and transferred to a 50 mL tube. The cells were mixed well and counted. Using OptiMEM+5% FBS, the cells were diluted in two 250 mL conical tubes at 0.71×10^6 cells/mL in 70 mL. One tube was labeled “WT” and the other “G2019S”. The WT and G2019S transfection mixes were added dropwise to the corresponding 250 mL tubes. The tubes were mixed first by pipetting then by swirling. The tubes were incubated at room temperature for at least 5 minutes.
(§3) Each tube was swirled before dispensing and after every three plates. Seventy microliters of cells were dispensed with WT or G2019S DNA to seven plates each. Three plates of each were tested with compound plate one (preparation described below) and three plates of each were tested with compound plate two (preparation described below). The first plate from each set served as a “prime” plate and was not used to test compounds. Each plate was incubated in the hood for 10 minutes before placing in the 37° C. incubator for 24 hours.
(§4) Preparation of Compound and Assay Plates. Two compound plates were made using 96 well polypropylene plates. Compounds were made up at 10 mM and were diluted to 1 mM in 30 μL. Each dose response curve included a well of DMSO, as a negative control and for normalization, and a well of 0.5 μM of Exemplary Compound 4 as a positive control. In addition to seven test compounds, each plate also included a dose response of Exemplary Compound 4. The compound plates were spun down along at 1200 rpm for 2 minutes.
(§5) The two compound plates were then mixed and 2 μL was diluted in intermediate plates having 248 μL of Opti-Mem in each well. Next, 10 μL diluted compounds from the intermediate plates were added to each test plate (three WT and three G2019S plates per compound plate for a total of 12 assay plates). The plates were incubated for 24 hours at 37° C.
(§6) All assay plates and all Nano-Glo Dual-Luciferase Reporter Assay System components (except for the DLR substrate) were equilibrated to room temperature. Next, the luciferase buffer was mixed with the lyophilized amber bottle until fully dissolved, and 75 μL of the luciferase mixture was added to each well of each assay plate. The assay plates were incubated for 10 minutes at room temperature with shaking for at least 5 minutes, and then read on a plate reader.
(§7) Developing Plates and Analyzing Data. One milliliter of DLR substrate and 1 mL LgBiT Protein were added to the Stop and Glo buffer, and 75 μL of the mixture was added to each well of each plate. Optically clear seals were added to each plate and each plate was incubated for 20 minutes with shaking for at least 10 minutes, and then read on a plate reader. […]

wildtype LRRK2 = target: T2, wildtype LRRK2 (Homo sapiens, UniProt Q5S007); assay: LRRK2 degradation HiBit assay, wildtype LRRK2 tagged with a HiBit tag in HEK293 cells; assay type: cell-based; settings: 24 hours compound incubation; for Dmax: read-out: ** WT Dmax (%); for DC50: read-out: *WT DC50
T2 construct: endogenous in cells; host or cells: HEK293 with HiBit knocked in at the 3' end of the endogenous LRRK2 gene, stably expressing firefly luciferase
Method: as §1, with “repeated on two separate days,” for “repeated on three separate days,”
as §2
While the transfection mixes were incubating, HEK293 cells (acquired from ATCC; ATCC CRL-1573) were harvested with trypsin. Once cells are detached, the cells were resuspended in 12 mL OptiMEM+5% FBS and transferred to a 50 mL tube. The cells were mixed well and counted. Using OptiMEM+5% FBS, the cells were diluted in two 250 mL conical tubes at 0.71×10^6 cells/mL in 70 mL. One tube was labeled “WT” and the other “G2019S”. The WT and G2019S transfection mixes were added dropwise to the corresponding 250 mL tubes. The tubes were mixed first by pipetting then by swirling. The tubes were incubated at room temperature for at least 5 minutes.
as §3, §4, §5, §6, §7

T1 sequence (Q5S007 whole entry G2019S): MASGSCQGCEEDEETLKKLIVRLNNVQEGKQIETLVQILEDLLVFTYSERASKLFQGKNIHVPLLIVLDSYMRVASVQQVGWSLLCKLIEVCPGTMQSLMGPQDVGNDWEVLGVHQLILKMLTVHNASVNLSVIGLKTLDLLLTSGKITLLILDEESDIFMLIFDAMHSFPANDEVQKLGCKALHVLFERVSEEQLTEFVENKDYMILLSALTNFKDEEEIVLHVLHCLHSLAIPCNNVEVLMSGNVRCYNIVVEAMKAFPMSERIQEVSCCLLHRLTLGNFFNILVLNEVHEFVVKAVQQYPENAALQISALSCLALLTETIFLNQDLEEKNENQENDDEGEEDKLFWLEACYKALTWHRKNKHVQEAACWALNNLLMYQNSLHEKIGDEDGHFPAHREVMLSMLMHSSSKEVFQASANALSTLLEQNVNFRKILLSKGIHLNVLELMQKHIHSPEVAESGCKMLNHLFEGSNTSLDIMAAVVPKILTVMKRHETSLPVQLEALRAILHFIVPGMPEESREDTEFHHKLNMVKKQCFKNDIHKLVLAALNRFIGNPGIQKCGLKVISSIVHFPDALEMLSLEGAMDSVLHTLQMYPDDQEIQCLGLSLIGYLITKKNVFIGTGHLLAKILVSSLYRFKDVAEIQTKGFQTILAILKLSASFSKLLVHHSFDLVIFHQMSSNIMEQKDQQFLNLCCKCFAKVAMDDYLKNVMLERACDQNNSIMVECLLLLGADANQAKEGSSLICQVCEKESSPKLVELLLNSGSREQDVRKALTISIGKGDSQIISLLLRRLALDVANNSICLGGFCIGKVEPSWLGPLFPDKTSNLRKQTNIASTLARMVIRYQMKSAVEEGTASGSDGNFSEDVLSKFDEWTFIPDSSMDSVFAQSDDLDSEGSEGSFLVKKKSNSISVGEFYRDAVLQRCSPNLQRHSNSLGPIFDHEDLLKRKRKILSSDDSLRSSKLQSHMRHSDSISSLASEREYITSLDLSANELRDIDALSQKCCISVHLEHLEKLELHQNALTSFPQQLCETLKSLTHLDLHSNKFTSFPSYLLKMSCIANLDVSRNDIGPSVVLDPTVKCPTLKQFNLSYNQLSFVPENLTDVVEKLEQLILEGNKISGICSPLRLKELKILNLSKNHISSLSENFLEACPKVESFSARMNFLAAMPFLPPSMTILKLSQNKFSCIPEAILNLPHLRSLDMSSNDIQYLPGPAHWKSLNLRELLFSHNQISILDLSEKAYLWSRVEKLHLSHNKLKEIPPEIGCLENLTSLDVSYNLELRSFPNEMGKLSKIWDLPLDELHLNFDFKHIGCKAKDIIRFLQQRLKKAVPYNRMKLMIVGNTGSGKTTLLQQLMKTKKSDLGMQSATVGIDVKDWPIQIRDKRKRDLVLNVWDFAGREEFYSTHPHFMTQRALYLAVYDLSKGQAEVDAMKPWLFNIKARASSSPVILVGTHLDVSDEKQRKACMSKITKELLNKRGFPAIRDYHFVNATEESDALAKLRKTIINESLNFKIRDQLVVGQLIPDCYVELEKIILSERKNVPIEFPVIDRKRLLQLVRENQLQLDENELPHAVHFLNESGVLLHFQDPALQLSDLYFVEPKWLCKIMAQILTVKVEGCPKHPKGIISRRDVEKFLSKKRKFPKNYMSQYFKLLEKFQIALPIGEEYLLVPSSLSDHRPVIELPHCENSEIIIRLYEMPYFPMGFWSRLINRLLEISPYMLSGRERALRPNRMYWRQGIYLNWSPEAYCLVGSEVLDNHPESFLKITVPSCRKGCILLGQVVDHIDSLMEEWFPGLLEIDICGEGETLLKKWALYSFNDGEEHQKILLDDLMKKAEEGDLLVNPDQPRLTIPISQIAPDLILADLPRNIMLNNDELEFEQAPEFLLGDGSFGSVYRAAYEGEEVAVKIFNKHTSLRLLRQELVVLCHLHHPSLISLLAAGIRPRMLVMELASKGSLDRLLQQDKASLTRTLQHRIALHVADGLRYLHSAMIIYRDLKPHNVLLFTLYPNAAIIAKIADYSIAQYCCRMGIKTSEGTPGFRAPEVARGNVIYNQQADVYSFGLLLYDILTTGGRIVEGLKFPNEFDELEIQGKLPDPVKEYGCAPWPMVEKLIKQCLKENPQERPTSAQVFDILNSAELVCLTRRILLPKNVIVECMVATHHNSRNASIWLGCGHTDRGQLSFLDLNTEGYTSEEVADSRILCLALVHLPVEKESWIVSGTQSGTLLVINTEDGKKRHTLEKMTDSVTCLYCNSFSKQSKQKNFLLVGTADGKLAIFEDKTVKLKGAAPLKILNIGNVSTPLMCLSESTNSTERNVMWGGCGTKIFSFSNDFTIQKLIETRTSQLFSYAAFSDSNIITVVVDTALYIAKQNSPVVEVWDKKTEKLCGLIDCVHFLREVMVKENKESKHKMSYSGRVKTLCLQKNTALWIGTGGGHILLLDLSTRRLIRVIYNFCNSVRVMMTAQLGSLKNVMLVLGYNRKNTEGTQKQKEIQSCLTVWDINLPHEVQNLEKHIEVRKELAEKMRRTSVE
T2 sequence (Q5S007 whole entry): as the sequence (Q5S007 whole entry G2019S) above, with S2019G counted along it

Row | SMILES | Dmax (G2019S LRRK2) | DC50 (G2019S LRRK2) | Dmax (wildtype LRRK2) | DC50 (wildtype LRRK2)
1 | CC1=C(C(=O)Nc2ccc3[nH]nc(-c4ccnc(N5CCN(CC6CCN(CC7CCN(c8ccc9c(c8)C(=O)N(C8CCC(=O)NC8=O)C9=O)CC7)CC6)[C@@H](C)C5)c4)c3c2)[C@@H](C)n2nnnc2N1C (single isomer, unassigned) [compound 8] | 50 to 70% | < 10 nM | 50 to 70% | 10 to 50 nM
2 | CC1=C(C(=O)Nc2ccc3[nH]nc(-c4ccnc(N5CCN(CC6CCN(CC7CCN(c8ccc9c(c8)C(=O)N(C8CCC(=O)NC8=O)C9=O)CC7)CC6)[C@@H](C)C5)c4)c3c2)[C@H](C)n2nnnc2N1C (single isomer, unassigned) [compound 9] | 50 to 70% | 50 to 100 nM | < 50% | ≥ 100 nM
3 | CC1=C(C(=O)Nc2ccc3[nH]nc(-c4ccnc(N5C[C@@H](C)N(CC6CCN(CC7CCN(c8ccc9c(c8)C(=O)N(C8CCC(=O)NC8=O)C9=O)CC7)CC6)[C@@H](C)C5)c4)c3c2)Cn2nnnc2N1C (stereo partly drawn) [compound 1, N-(3-(2-((3S,5R)-4-((1-((1-(2-(2,6-dioxopiperidin-3-yl)-1,3-dioxoisoindolin-5-yl)piperidin-4-yl)methyl)piperidin-4-yl)methyl)-3,5-dimethylpiperazin-1-yl)pyridin-4-yl)-1H-indazol-5-yl)-4,5-dimethyl-4,7-dihydrotetrazolo[1,5-a]pyrimidine-6-carboxamide] | 50 to 70% | < 10 nM | 50 to 70% | 10 to 50 nM
4 | CC1=C(C(=O)Nc2ccc3[nH]nc(-c4ccnc(N5C[C@@H](C)N(CC6CCN(CC7CCN(c8ccc9c(c8)C(=O)N(C8CCC(=O)NC8=O)C9=O)CC7)CC6)[C@@H](C)C5)c4)c3c2)C(C)n2nnnc2N1C (stereo partly drawn) [compound 2, N-(3-(2-((3S,5R)-4-((1-((1-(2-(2,6-dioxopiperidin-3-yl)-1,3-dioxoisoindolin-5-yl)piperidin-4-yl)methyl)piperidin-4-yl)methyl)-3,5-dimethylpiperazin-1-yl)pyridin-4-yl)-1H-indazol-5-yl)-4,5,7-trimethyl-4,7-dihydrotetrazolo[1,5-a]pyrimidine-6-carboxamide] | 50 to 70% | < 10 nM | 50 to 70% | 10 to 50 nM
5 | CC1=C(C(=O)Nc2ccc3[nH]nc(-c4ccnc(N5C[C@@H](C)N(CCOCCN6CCN(c7ccc8c(c7)C(=O)N(C7CCC(=O)NC7=O)C8=O)CC6)[C@@H](C)C5)c4)c3c2)Cn2nnnc2N1C (stereo partly drawn) [compound 3, N-(3-(2-((3R,5S)-4-(2-(2-(4-(2-(2,6-dioxopiperidin-3-yl)-1,3-dioxoisoindolin-5-yl)piperazin-1-yl)ethoxy)ethyl)-3,5-dimethylpiperazin-1-yl)pyridin-4-yl)-1H-indazol-5-yl)-4,5-dimethyl-4,7-dihydrotetrazolo[1,5-a]pyrimidine-6-carboxamide] | – | ≥ 100 nM | – | ≥ 100 nM
6 | CC1=C(C(=O)Nc2ccc3[nH]nc(-c4ccnc(N5C[C@@H](C)N(CCOCCOCCN6CCN(c7ccc8c(c7)C(=O)N(C7CCC(=O)NC7=O)C8=O)CC6)[C@@H](C)C5)c4)c3c2)Cn2nnnc2N1C (stereo partly drawn) [compound 4, N-(3-(2-((3R,5S)-4-(2-(2-(2-(4-(2-(2,6-dioxopiperidin-3-yl)-1,3-dioxoisoindolin-5-yl)piperazin-1-yl)ethoxy)ethoxy)ethyl)-3,5-dimethylpiperazin-1-yl)pyridin-4-yl)-1H-indazol-5-yl)-4,5-dimethyl-4,7-dihydrotetrazolo[1,5-a]pyrimidine-6-carboxamide] | – | ≥ 100 nM | – | ≥ 100 nM
7 | CC1=C(C(=O)Nc2ccc3[nH]nc(-c4ccnc(N5C[C@@H](C)N(CCN6CCN(c7ccc8c(c7)C(=O)N(C7CCC(=O)NC7=O)C8=O)CC6)[C@@H](C)C5)c4)c3c2)Cn2nnnc2N1C (stereo partly drawn) [compound 5, N-(3-(2-((3R,5S)-4-(2-(4-(2-(2,6-dioxopiperidin-3-yl)-1,3-dioxoisoindolin-5-yl)piperazin-1-yl)ethyl)-3,5-dimethylpiperazin-1-yl)pyridin-4-yl)-1H-indazol-5-yl)-4,5-dimethyl-4,7-dihydrotetrazolo[1,5-a]pyrimidine-6-carboxamide] | < 50% | ≥ 100 nM | – | ≥ 100 nM
